Marks after values point to notes of the source that are not given here.
Assays:
[1] = tested on: carrageenan-induced paw edema in rats; experiment: Carrageenan-induced paw edema (anti-inflammatory activity); format: in vivo; conditions: 10 mg/kg oral; for % Change in Paw Height (Mean ± SEM): n = 5
Outline: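 Albino rats weighing 150–180 g, in groups of five, received test compounds orally at 10 mg/kg; one hour later 0.1 mL of 1% carrageenan was injected into the left hind paw. Paw inflammation height was measured by digital caliber plethysmometer at 0, 1, 2 and 3 h, expressed as percentage increase relative to the uninjected right paw, with percentage edema inhibition versus control calculated at 3 h.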

[2] = tested on: acetic acid-induced writhing in mice; experiment: Acetic acid-induced writhing test (analgesic activity); format: in vivo; conditions: 10 mg/kg p.o., n = 5; for Writhing Number in 20 min (Mean ± SEM): acetic acid 1 h after dosing; for Analgesic Activity (% protection): writhing test
Outline: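 Mice of 25–30 g, fasted 8 h, given compound at 10 mg/kg p.o., five animals per group. One hour later, 1% acetic acid i.p. (0.1 mL/10 g); writhes counted over 20 min. Percent protection calculated against the saline control group.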

human recombinant COX-2 = target: T1, human recombinant COX-2 (Homo sapiens, UniProt P35354); experiment: In vitro COX inhibitor screening assay (EIA kit, Cayman), COX-2; format: biochemical; conditions: for COX2 (SI) selectivity index: COX-1 IC50 / COX-2 IC50; for IC50: COX-2, mean of two determinations, enzyme kit, read-out: COX2 IC50
T1 construct: purchased Cayman Chemical, Ann Arbor, MI, USA 560131
T1 sequence (P35354 18-604): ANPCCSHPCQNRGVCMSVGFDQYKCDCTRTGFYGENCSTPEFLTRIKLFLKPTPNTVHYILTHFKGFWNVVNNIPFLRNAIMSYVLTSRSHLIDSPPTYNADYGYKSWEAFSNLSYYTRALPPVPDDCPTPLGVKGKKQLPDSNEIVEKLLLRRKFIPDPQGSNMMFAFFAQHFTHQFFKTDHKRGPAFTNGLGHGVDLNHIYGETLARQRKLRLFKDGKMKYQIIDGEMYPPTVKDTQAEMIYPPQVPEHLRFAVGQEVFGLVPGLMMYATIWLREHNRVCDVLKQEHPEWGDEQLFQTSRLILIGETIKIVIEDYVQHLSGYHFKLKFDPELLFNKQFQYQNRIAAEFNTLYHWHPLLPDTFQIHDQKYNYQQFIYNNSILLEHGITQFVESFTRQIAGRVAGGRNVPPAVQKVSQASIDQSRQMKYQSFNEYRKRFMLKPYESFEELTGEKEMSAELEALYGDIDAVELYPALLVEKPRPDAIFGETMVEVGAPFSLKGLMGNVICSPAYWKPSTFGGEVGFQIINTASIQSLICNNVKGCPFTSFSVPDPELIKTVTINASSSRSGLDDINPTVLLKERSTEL
Protocol: (§1) Furthermore, the selectivity index for COX-2 (COX-1 IC50 / COX-2 IC50) was calculated for the compounds.

[3] = tested on: interleukin-1 beta (IL-1 β); experiment: ELISA of serum interleukin-1 beta after paw edema test; format: in vivo, rats; conditions: rat serum at the end of the paw edema test, mean ± SEM, n = 5
Protocol: IL1 is one of the important inflammatory mediators and is used to confirm the anti-inflammatory activities of new anti-inflammatory compounds. At the end of the paw edema test, blood samples were collected from the orbital axis of the eye under light ether anesthesia. Sera were separated after centrifugation of blood at 5000 rpm for 15 min; the sera were stored at –80 °C until the ELISA assay was performed according to the manufacturer instructions.

ovine COX-1 = target: T2, ovine COX-1 (Ovis aries, UniProt P05979); experiment: In vitro COX inhibitor screening assay (EIA kit, Cayman), COX-1; format: biochemical; conditions: mean of two determinations, enzyme kit, read-out: COX1 IC50
T2 construct: purchased Cayman Chemical, Ann Arbor, MI, USA 560131
T2 sequence (P05979 25-600): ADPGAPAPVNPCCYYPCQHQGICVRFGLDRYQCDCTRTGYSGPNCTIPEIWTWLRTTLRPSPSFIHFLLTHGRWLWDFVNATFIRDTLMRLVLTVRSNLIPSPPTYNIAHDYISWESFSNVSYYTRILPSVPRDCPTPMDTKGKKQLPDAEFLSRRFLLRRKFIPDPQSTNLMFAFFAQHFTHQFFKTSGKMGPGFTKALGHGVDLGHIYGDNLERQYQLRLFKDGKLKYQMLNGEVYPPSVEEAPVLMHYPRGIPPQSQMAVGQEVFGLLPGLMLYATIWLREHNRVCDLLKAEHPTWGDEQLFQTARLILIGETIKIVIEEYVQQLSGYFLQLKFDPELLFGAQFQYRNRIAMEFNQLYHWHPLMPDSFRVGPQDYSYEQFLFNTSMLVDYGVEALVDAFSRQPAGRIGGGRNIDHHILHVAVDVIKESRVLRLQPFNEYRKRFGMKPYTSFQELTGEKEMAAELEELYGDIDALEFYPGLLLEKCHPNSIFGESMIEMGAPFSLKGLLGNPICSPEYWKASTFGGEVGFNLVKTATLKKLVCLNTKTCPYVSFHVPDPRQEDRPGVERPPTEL
Protocol: as §1

SMILES | melting point [°C] | COX2 (SI) selectivity index (human recombinant COX-2) | IC50 (human recombinant COX-2) [nM] | IC50 (ovine COX-1) [µM] | % Change in Paw Height (Mean ± SEM) ([1]; 1 hr after carrageenan) | % Change in Paw Height (Mean ± SEM) ([1]; 2 hr after carrageenan) | Anti-Inflammatory Activity (% Inhibition of Edema) ([1]; 3 hr after carrageenan) [%] | % Change in Paw Height (Mean ± SEM) ([1]; 3 hr after carrageenan) | Writhing Number in 20 min (Mean ± SEM) [2] | Analgesic Activity (% protection) [2] | IL-1 β Concentration [3]
COc1c2ccoc2cc2oc(C(=Nc3cc(N4CCNCC4)nc(N4CCNCC4)n3)N3CCNCC3)c(C)c12 [Compound 10a, N-(2,6-di (piperazin-1-yl)pyrimidin-4-yl)-1-(4-methoxy-3-methylbenzo [1,2-b: 5,4-b`]difuran-2-yl)-1-(piperazin-1-yl) methanimine] | > 350 | 98 | 43 | 4.23 | 0.19 ± 0.01 ^a % | 0.14 ± 0.02 ^a % | 67 | 0.16 ± 0.02 ^a % | 25 ± 1.3 ^a | 50 ± 1.6 ^a % | 31 ± 0.55 ^b Pg /mL
COc1c2occc2c(OC)c2c(C)c(C3=NC4=CC(=O)N5C(=O)CSC5N4C(=O)CO3)oc12 (centres unmarked) [Compound 12b, 8-(4,8-dimethoxy-3-methylbenzo[1,2-b:5,4-b`]difuran-2-yl)-5H,12aH-thiazolo[2’,3’:2,3] pyrimido[6,1-d][1,3,5]oxadiazepine-3,5,11(2H,10H)-trione] | > 350 | 87 | 70 | 6.1 | 0.28 ± 0.01 ^a % | 0.22 ± 0.02 ^a % | 58 | 0.25 ± 0.02 ^a % | 34 ± 1.7 ^a | 41 ± 1.10 ^a % | 40 ± 0.22 ^b Pg /mL
COc1c2ccoc2cc2oc(C3=NC4=CC(=O)N5C(=O)CSC5N4C(=O)CO3)c(C)c12 (centres unmarked) [Compound 12a, 8-(4-methoxy-3-methylbenzo[1,2-b:5,4-b`]difuran-2-yl)-5H,12aH-thiazolo[2’,3’:2,3] pyrimido[6,1-d][1,3,5]oxadiazepine-3,5,11(2H,10H)-trione] | > 350 | 85 | 75 | 6.4 | 0.28 ± 0.02 ^a % | 0.23 ± 0.01 ^a % | 57 | 0.26 ± 0.01 ^a % | 35 ± 1.2 ^a | 40 ± 1.50 ^a % | 41 ± 0.85 ^b Pg /mL

Now from value to molecule, other results behind:

melting point [°C] | COX2 (SI) selectivity index (human recombinant COX-2) | IC50 (human recombinant COX-2) [nM] | IC50 (ovine COX-1) [µM] | SMILES | % Change in Paw Height (Mean ± SEM) ([1]; 1 hr after carrageenan) | % Change in Paw Height (Mean ± SEM) ([1]; 2 hr after carrageenan) | Anti-Inflammatory Activity (% Inhibition of Edema) ([1]; 3 hr after carrageenan) [%] | % Change in Paw Height (Mean ± SEM) ([1]; 3 hr after carrageenan) | Writhing Number in 20 min (Mean ± SEM) [2] | Analgesic Activity (% protection) [2] | IL-1 β Concentration [3]
> 350 | 95 | 55 | 5.2 | COc1c2ccoc2cc2oc(C3=NC4=CC(=O)N5C(=O)C(=Cc6ccc(Cl)cc6)SC5N4C(=O)C(=Cc4ccc(Cl)cc4)O3)c(C)c12 (centres unmarked) [Compound 13b, 2,10-bis(4-chlorobenzylidene)-8-(4-methoxy-3-methylbenzo[1,2-b:5,4-b`]difuran-2-yl)-5H, 12aH-thiazolo[2’,3’:2,3]pyrimido[6,1-d][1,3,5]oxadiazepine-3,5,11(2H,10H)-trione] | 0.23 ± 0.02 ^a % | 0.18 ± 0.01 ^a % | 63 | 0.20 ± 0.02 ^a % | 29 ± 1.5 ^a | 46 ± 1.6 ^a % | 35 ± 0.28 ^b Pg /mL
> 350 | 92 | 60 | 5.52 | COc1ccc(C=C2OC(c3oc4cc5occc5c(OC)c4c3C)=NC3=CC(=O)N4C(=O)C(=Cc5ccc(OC)cc5)SC4N3C2=O)cc1 (centres unmarked) [Compound 13c, 8-(4-methoxy-3-methylbenzo[1,2-b:5,4-b`]difuran-2-yl)-2,10-bis(4-methoxybenzylidene)-5H,12aH-thiazolo[2’,3’:2,3]pyrimido[6,1-d][1,3,5]oxadiazepine-3,5,11(2H,10H)-trione] | 0.25 ± 0.01 ^a % | 0.19 ± 0.02 ^a % | 61 | 0.22 ± 0.02 ^a % | 31 ± 1.1 ^a | 44 ± 0.85 ^a % | 37 ± 0.57 ^b Pg /mL
> 350 | 96 | 53 | 5.1 | COc1c2occc2c(OC)c2c(C)c(C3=NC4=CC(=O)N5C(=O)C(=Cc6ccc(Cl)cc6)SC5N4C(=O)C(=Cc4ccc(Cl)cc4)O3)oc12 (centres unmarked) [Compound 13e, 2,10-bis(4-chlorobenzylidene)-8-(4,8-dimethoxy-3-methylbenzo[1,2-b:5,4-b`]difuran-2-yl)-5H,12aH-thiazolo[2’,3’:2,3]pyrimido[6,1-d][1,3,5]oxadiazepine-3,5,11(2H,10H)-trione] | 0.22 ± 0.01 ^a % | 0.17 ± 0.02 ^a % | 64 | 0.19 ± 0.02 ^a % | 28 ± 1.3 ^a | 47 ± 1.7 ^a % | 34 ± 0.33 ^b Pg /mL
> 350 | 90 | 64 | 5.79 | COc1c2ccoc2cc2oc(C3=NC4=CC(=O)N5C(=O)C(=Cc6ccccc6)SC5N4C(=O)C(=Cc4ccccc4)O3)c(C)c12 (centres unmarked) [Compound 13a, 2,10-di(benzylidene)-8-(4-methoxy-3-methylbenzo[1,2-b:5,4-b`]difuran-2-yl)-5H,12aH-thiazolo[2’,3’:2,3]pyrimido[6,1-d][1,3,5]oxadiazepine-3,5,11(2H,10H)-trione] | 0.27 ± 0.02 ^a % | 0.21 ± 0.01 ^a % | 59 | 0.24 ± 0.01 ^a % | 33 ± 1.9 ^a | 42 ± 1.90 ^a % | 39 ± 0.31 ^b Pg /mL
